Results reported in ChEMBL document CHEMBL4184281, “Pharmacology and in vivo efficacy of pyridine-pyrimidine amides that inhibit microtubule polymerization” (Bioorg Med Chem Lett, 2018).
Activity calls are given as the source filed them. The calls are words filed in the database; no cut-off is given here.

Tests used:
[1] = molecular target: T1, Cytochrome P450 1A2 (Homo sapiens, UniProt P05177); assay: Inhibition of CYP1A2 (unknown origin); format: ADME
T1 sequence (P05177 whole entry): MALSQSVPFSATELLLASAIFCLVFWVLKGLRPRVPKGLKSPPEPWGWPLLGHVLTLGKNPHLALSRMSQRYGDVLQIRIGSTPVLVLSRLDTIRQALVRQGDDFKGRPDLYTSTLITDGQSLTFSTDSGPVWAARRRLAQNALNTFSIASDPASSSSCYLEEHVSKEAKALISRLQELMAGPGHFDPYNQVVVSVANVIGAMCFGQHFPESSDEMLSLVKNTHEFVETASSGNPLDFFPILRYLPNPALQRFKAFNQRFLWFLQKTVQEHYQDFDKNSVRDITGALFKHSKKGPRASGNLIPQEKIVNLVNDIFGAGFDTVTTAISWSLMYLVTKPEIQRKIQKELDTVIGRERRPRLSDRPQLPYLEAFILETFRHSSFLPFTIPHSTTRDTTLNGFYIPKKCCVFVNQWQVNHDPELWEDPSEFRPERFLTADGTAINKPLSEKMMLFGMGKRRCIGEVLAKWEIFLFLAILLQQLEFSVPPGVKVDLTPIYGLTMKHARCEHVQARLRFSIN

[2] = system: Mus musculus; assay: Toxicity in nude BALB/c mouse xenografted with human A2780 cells assessed as change in body weight at 15 mg/kg, po administered every other day measured up to 12 days post dose; format: organism-based; settings: in vivo, 288 h
[3] = system: Breast carcinoma cell; assay: Antitumor activity against chemo-refractory disease patient-derived breast cancer cells xenografted in NOD/SCID mouse assessed as tumor regression at 10 mg/kg, po qd administered via gavage for 60 days; format: functional, organism-based; settings: Homo sapiens
[4] = molecular target: Cytochrome P450 2C19 (Homo sapiens, UniProt P33261); assay: Inhibition of CYP2C19 (unknown origin); format: ADME
[5] = Stability in human plasma assessed as parent compound remaining after 8 hrs relative to initial time; format: ADME, cell-free; settings: read-out: Stability
[6] = system: MDA-MB-436; assay: Antiproliferative activity against human MDA-MB-436 cells up to 1000 nM after 72 hrs by ATPlite assay; format: functional, cell-based
[7] = system: SNU-16; assay: Antitumor activity against human SNU16 cells xenografted in nude BALB/c mouse assessed as tumor growth inhibition relative to control; format: functional
[8] = in vitro; settings: human, Caco-2
Description: Apparent intrinsic permeability in human Caco2 cells from apical to basolateral side after 120 mins by mass spectrometry

[9] = system: Mus musculus; assay: Toxicity in NOD/SCID mouse xenografted with chemo-refractory disease patient-derived breast cancer cells at 10 mg/kg, po qd administered via gavage for 60 days; format: organism-based; settings: in vivo, 1440 h
[10] = Protein binding in plasma (unknown origin); format: ADME, cell-free; settings: read-out: PPB (converted)
[11] = molecular target: Cytochrome P450 3A4 (Homo sapiens, UniProt P08684); assay: Inhibition of CYP3A4 (unknown origin); format: ADME
[12] = system: MDA-MB-436; assay: Antiproliferative activity against paclitaxel-resistant human MDA-MB-436 cells 20B clone up to 1000 nM after 72 hrs by ATPlite assay; format: functional, cell-based
[13] = Stability in human plasma assessed as parent compound remaining after 2 hrs relative to initial time; format: ADME, cell-free; settings: read-out: Stability
[14] = Tmax in CD-1 mouse administered as single po dose by mass spectrometry; format: ADME, organism-based; settings: in vivo
[15] = Half life in human liver microsomes; format: ADME, microsome
[16] = system: BT-549; assay: Antiproliferative activity against paclitaxel-resistant human BT549 cells 10A clone up to 1000 nM after 72 hrs by ATPlite assay; format: functional, cell-based
[17] = system: Hs-578T; assay: Antiproliferative activity against paclitaxel-resistant human Hs 578T cells 20B clone up to 1000 nM after 72 hrs by ATPlite assay; format: functional, cell-based
[18] = system: SNU-16; assay: Antitumor activity against human SNU16 cells harboring luciferase orthotopically implanted in gastric mucosa of Balb/c nude mouse assessed as tumor growth inhibition at 20 mg/kg, po qd administered for 5 days per week for 3 weeks starting from 1 week post tumor implantation by luminescence imaging method; format: functional, organism-based
[19] = Stability in human plasma assessed as parent compound remaining after 24 hrs relative to initial time; format: ADME, cell-free; settings: read-out: Stability
[20] = Drug recovery in plasma (unknown origin); format: ADME, cell-free
[21] = system: BT-549; assay: Antiproliferative activity against human BT549 cells up to 1000 nM after 72 hrs by ATPlite assay; format: functional, cell-based
[22] = Unbound fraction in plasma (unknown origin); format: ADME, cell-free
[23] = system: MDA-MB-436; assay: Antiproliferative activity against paclitaxel-resistant human MDA-MB-436 cells 20A clone up to 1000 nM after 72 hrs by ATPlite assay; format: functional, cell-based
[24] = Half life in dog liver microsomes; format: ADME, Canis lupus familiaris, microsome
[25] = system: Mus musculus; assay: Toxicity in nude BALB/c mouse xenografted with human MFE296 cells assessed as body weight loss at 15 mg/kg, po qd administered via gavage for 10 days measured after 6 days; format: organism-based; settings: in vivo, 144 h
[26] = system: MFE-296; assay: Antitumor activity against human MFE296 cells xenografted in nude BALB/c mouse assessed as tumor growth inhibition at 15 mg/kg, po qd administered via gavage for 10 days; format: functional, organism-based
[27] = system: Hs-578T; assay: Antiproliferative activity against human Hs 578T cells up to 1000 nM after 72 hrs by ATPlite assay; format: functional, cell-based
[28] = Efflux ratio of apparent intrinsic permeability in human Caco2 cells after 120 mins by mass spectrometry; format: ADME, cell-based; settings: Caco-2
[29] = system: Breast carcinoma cell; assay: Antitumor activity against chemo-refractory disease patient-derived breast cancer cells xenografted in NOD/SCID mouse assessed as tumor growth inhibition at 10 mg/kg, po qd administered via gavage for 15 days; format: functional, organism-based; settings: Homo sapiens
[30] = molecular target: Cytochrome P450 2D6 (Homo sapiens, UniProt P10635); assay: Inhibition of CYP2D6 (unknown origin); format: ADME
[31] = molecular target: Cytochrome P450 2C9 (Homo sapiens, UniProt P11712); assay: Inhibition of CYP2C9 (unknown origin); format: ADME
[32] = system: A2780; assay: Antitumor activity against human A2780 cells xenografted in nude BALB/c mouse assessed as tumor growth inhibition at 20 mg/kg, po qd measured up to 12 days post dose; format: functional, organism-based
[33] = Toxicity in mouse administered as single po dose; format: organism-based; settings: in vivo
[34] = system: Hs-578T; assay: Antiproliferative activity against paclitaxel-resistant human Hs 578T cells 10C clone up to 1000 nM after 72 hrs by ATPlite assay; format: functional, cell-based
[35] = Stability in human plasma assessed as parent compound remaining after 75 mins relative to initial time; format: ADME, cell-free; settings: read-out: Stability
[36] = Stability in human plasma assessed as parent compound remaining after 4 hrs relative to initial time; format: ADME, cell-free; settings: read-out: Stability
[37] = system: Mus musculus; assay: Toxicity in nude BALB/c mouse xenografted with human MFE296 cells assessed as body weight loss at 3.75 to 7.5 mg/kg, po qd administered via gavage for 10 days; format: organism-based; settings: in vivo, 240 h
[38] = system: MFE-296; assay: Antitumor activity against human MFE296 cells xenografted in nude BALB/c mouse assessed as tumor growth inhibition at 3.75 to 7.5 mg/kg, po qd administered via gavage for 10 days relative to control; format: functional
[39] = Half life in mouse liver microsomes; format: ADME, microsome
[40] = system: Mus musculus; assay: Toxicity in nude BALB/c mouse xenografted with human A2780 cells assessed as change in body weight at 20 mg/kg, po qd measured up to 12 days post dose; format: organism-based; settings: in vivo, 288 h
[41] = Half life in rat liver microsomes; format: ADME, microsome
[42] = system: A2780; assay: Antitumor activity against human A2780 cells xenografted in nude BALB/c mouse assessed as tumor growth inhibition at 15 mg/kg, po administered every other day measured up to 12 days post dose; format: functional, organism-based
[43] = Toxicity in mouse; format: organism-based; settings: in vivo
[44] = in vitro; settings: human, Caco-2; remark: listed apart in the source
Description: Apparent intrinsic permeability in human Caco2 cells from basolateral to apical side after 120 mins by mass spectrometry

Sequence of Cytochrome P450 2D6 (P10635 whole entry): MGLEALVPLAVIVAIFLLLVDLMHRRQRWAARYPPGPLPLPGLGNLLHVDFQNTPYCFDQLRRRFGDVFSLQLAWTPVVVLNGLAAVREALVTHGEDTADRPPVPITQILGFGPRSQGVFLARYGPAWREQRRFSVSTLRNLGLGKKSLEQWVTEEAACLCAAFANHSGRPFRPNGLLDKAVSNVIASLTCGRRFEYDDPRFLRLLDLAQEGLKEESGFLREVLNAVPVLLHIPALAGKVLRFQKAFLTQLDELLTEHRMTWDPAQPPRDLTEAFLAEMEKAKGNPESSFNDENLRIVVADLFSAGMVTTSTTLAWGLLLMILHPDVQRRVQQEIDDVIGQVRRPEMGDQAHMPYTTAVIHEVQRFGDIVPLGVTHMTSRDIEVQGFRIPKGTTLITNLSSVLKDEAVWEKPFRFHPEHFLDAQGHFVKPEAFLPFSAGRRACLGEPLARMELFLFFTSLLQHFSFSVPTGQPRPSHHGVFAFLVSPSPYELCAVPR
Sequence of Cytochrome P450 3A4 (P08684 whole entry): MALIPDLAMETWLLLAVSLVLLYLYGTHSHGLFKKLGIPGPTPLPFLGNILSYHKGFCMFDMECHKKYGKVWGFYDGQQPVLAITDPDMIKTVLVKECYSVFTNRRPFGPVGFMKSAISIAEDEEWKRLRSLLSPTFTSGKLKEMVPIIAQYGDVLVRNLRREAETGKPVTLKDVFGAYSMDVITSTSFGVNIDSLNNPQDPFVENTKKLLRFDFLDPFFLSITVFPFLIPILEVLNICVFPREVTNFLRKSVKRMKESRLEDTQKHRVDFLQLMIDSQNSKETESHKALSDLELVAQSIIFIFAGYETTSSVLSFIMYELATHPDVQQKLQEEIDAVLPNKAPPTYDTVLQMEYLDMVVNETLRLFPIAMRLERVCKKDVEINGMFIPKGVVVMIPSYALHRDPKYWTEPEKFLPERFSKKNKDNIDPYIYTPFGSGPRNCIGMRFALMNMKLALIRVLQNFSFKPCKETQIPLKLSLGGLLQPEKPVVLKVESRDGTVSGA
Sequence of Cytochrome P450 2C19 (P33261 whole entry): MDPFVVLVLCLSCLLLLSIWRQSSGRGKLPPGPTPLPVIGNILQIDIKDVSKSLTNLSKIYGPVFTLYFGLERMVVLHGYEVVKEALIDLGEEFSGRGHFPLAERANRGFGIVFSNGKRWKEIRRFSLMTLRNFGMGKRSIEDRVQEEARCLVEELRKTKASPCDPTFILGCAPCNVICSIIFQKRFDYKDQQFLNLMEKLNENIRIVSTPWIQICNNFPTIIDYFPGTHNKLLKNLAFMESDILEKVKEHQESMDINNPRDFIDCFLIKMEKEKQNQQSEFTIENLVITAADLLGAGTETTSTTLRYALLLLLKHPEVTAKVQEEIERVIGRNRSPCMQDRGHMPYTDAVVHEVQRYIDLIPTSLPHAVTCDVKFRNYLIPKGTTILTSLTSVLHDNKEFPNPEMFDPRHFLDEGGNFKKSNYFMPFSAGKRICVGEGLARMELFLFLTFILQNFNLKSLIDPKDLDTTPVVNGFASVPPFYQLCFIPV
Sequence of Cytochrome P450 2C9 (P11712 whole entry): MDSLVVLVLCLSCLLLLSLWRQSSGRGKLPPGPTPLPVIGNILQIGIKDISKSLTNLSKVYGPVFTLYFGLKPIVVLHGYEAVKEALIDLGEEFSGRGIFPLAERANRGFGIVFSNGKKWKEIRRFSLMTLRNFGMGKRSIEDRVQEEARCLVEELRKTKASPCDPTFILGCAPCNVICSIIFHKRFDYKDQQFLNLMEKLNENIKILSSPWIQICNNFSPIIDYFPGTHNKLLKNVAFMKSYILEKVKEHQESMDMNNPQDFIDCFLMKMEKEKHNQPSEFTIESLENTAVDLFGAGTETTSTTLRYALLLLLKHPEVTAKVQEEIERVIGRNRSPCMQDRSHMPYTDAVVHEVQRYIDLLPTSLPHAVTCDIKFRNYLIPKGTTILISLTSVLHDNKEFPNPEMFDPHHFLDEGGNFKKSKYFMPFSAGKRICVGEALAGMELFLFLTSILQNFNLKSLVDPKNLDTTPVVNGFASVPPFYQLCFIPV

Question: What does the source list for `Cc1ncc(C(=O)Nc2ccc(-c3cccc(S(=O)(=O)C4CC4)c3)cn2)cn1`?
Answer: IC50 [1]: > 30 µM; Activity [2]: Non-Toxic; Activity [3]: Active; IC50 [4]: > 30 µM; remaining at 8 h [5]: 102%; Activity [6]: Active; TGI [7]: 109%; Papp A→B at 2 h [8]: 25.7 ×10⁻⁶ cm/s; Activity [9]: Non-Toxic; fraction unbound [10]: 0.022; IC50 [11]: > 30 µM; Activity [12]: Active; remaining at 2 h [13]: 111%; Tmax [14]: ≤ 15 min; half-life [15]: 144 min; Activity [16]: Active; Activity [17]: Active; TGI [18]: Active; remaining at 24 h [19]: 115%; Drug recovery [20]: 87.2%; Activity [21]: Active; fraction unbound [22]: 0.022; Activity [23]: Active; half-life [24]: 49.9 min; Activity [25]: Toxic; TGI [26]: Active; Activity [27]: Active; efflux ratio at 2 h [28]: 1.02; TGI [29]: Active; IC50 [30]: > 30 µM; IC50 [31]: > 30 µM; TGI [32]: Active; MTD [33]: ≤ 20 mg/kg; Activity [34]: Active; remaining at 1.25 h [35]: 93%; remaining at 4 h [36]: 103%; Activity [37]: Non-Toxic; TGI [38]: >85%; half-life [39]: 67.4 min; Activity [40]: Toxic; half-life [41]: 79.6 min; TGI [42]: Active; MTD [43]: ≤ 6 mg/kg; Papp B→A at 2 h [44]: 26.1 ×10⁻⁶ cm/s

Question: For `Cc1ncc(C(=O)Nc2ccc(-c3ccsc3)cn2)cn1`, which IC50 [1] is on record?
Answer: > 30 µM

Question: What about the IC50 [4] of the same compound?
Answer: > 30 µM

Question: What about the remaining at 8 h [5] of the same compound?
Answer: 71.6%

Question: What about the TGI [7] of the same compound?
Answer: 135%

Question: And the fraction unbound [10]?
Answer: 0.0507

Question: And the IC50 [11]?
Answer: > 30 µM

Question: And the remaining at 2 h [13]?
Answer: 92.2%

Question: And the half-life [15]?
Answer: 7.5 min

Question: And the remaining at 24 h [19]?
Answer: 49%

Question: What about the Drug recovery [20] of the same compound?
Answer: 93.56%

Question: And the fraction unbound [22]?
Answer: 0.0507

Question: What about the half-life [24] of the same compound?
Answer: 35.2 min

Question: What about the IC50 [30] of the same compound?
Answer: > 30 µM

Question: And the IC50 [31]?
Answer: > 30 µM

Question: And the TGI [32]?
Answer: Active

Question: And the MTD [33]?
Answer: ≤ 20 mg/kg

Question: And the remaining at 1.25 h [35]?
Answer: 91.7%

Question: What about the remaining at 4 h [36] of the same compound?
Answer: 86.9%

Question: And the half-life [39]?
Answer: 27.3 min

Question: What about the Activity [40] of the same compound?
Answer: Non-Toxic

Question: What about the half-life [41] of the same compound?
Answer: 25.9 min

Question: And the MTD [43]?
Answer: ≤ 6 mg/kg
